US7312193B2, “Calcium phosphopeptide complexes” (The University of Melbourne, priority 1997, dated 2007)
Square brackets hold non-standard residues; d marks the D form. Ends that are not written are not given here. pT = C[C@@H](OP(=O)(O)O)[C@H](N)C(=O)O; pS = N[C@@H](COP(=O)(O)O)C(=O)O

Tests used:
[1] = Calcium phosphate binding by CPP and synthetic homologues and analogues; settings: for Vca: calcium bound per peptide; for VPi: inorganic phosphate bound per peptide; for Ca/P: ratio of bound Ca to bound Pi; for Ca bound per molecule / Pi bound per molecule: maximal binding, 0.1% w/v peptide
Excerpt: Casein phosphopeptides containing the Ser(P) cluster, i.e. the core sequence motif Ser(P)-Ser(P)-Ser(P)-Glu-Glu-(SEQ ID NO: 5), have a marked ability to stabilize calcium phosphate in solution. Solutions containing 0.1% w/v αs1(59-79) (SEQ ID NO: 1) at various pH, calcium and phosphate concentrations, but constant ionic strengths were used to characterize the peptide's interaction with calcium phosphate.
The ion activity products for the various calcium phosphate phases [hydroxyapatite (HA); octacalcium phosphate (OCP); tricalcium phosphate (TCP); amorphous calcium phosphate (ACP); and dicalcium phosphate dihydrate (DCPD) were determined from the free calcium and phosphate concentrations at each pH using a computer program that calculates the ion activity coefficients through the use of the expanded Debye-Hückel equation and takes into account the ion pairs CaHPO4^o, CaH2PO4^+, CaPO4^−and CaOH^+ the dissociation of H3PO4 and H2O and the ionic strength. […] The peptide αs1(59-79) (SEQ ID NO: 1) binds to forming ACP clusters producing a metastable solution preventing ACP growth to the critical size required for nucleation and precipitation. The binding of αs1(59-79) (SEQ ID NO: 1) to ACP results in the formation of colloidal complexes with the unit formula [αs1(59-79) (SEQ ID NO: 1)(ACP)8]n where n is equal to or greater than one. It is likely that the predominant form is n=6 as αs1(59-79) (SEQ ID NO: 1) cross-linked with glutaraldehyde in the presence of ACP runs as a hexamer on polyacrylamide gel electrophoresis.
The relationship between CPP structure and interaction with amorphous calcium phosphate was investigated using a series of synthetic peptide homologues and analogues indicated in Table 1.

[2] = CPP and synthetic peptide binding to HA at 37° C.; settings: affinity constant
Excerpt: Similarly, we investigated the adsorption of the CPP and synthetic homologues and analogues onto HA (Table 2).

Substance | Vca [1] [mol/mol] | VPi [1] [mol/mol] | Ca/P [1] | K [2] | Ca bound per molecule [1] [per molecule] | Pi bound per molecule [1] [per molecule] | calcium phosphate binding [1]
SθθEE (S[pT][pT]EE) | 2 | 1 | 2.0 | – | – | – | –
TθθEE (T[pT][pT]EE) | – | – | – | 1,013 ml/μmol | – | – | –
EAIAΣAEA (EAIA[pS]AEA) | 0 | 0 | – | – | – | – | –
EΣΣEE (E[pS][pS]EE) | 2 | 1 | 2.0 | 1,513 ml/μmol | – | – | –
DΣΣEE (D[pS][pS]EE) | 2 | 1 | 2.0 | 6,579 ml/μmol | – | – | –
AcGlu-Ser(P)-Ile-Ser(P)-Ser(P)-Ser(P)-Glu-GluNHMe [αs1(63-70)] | 12 | 8 | 1.5 | 10,370 ml/μmol | 12 | 8 | –
SΣΣEE (S[pS][pS]EE) | 2 | 1 | 2.0 | – | – | – | –
IVPN[pS]VEQ [αs1(71-78)] | 0 | 0 | – | – | – | – | did not bind calcium phosphate
Gln-Met-Glu-Ala-Glu (QMEAE) [αs1(59-63)] | 0 | 0 | – | – | – | – | did not bind calcium phosphate
QMEAEΣIΣΣΣEEIVPNΣVEQK (QMEAE[pS]I[pS][pS][pS]EEIVPN[pS]VEQK; listed as Bos sp.) [αs1(59-79), tryptic casein phosphopeptide] | 24 | 16 | 1.5 | 415 mL/µmol | 24 | 16 | –
AΣAΣAΣAE (A[pS]A[pS]A[pS]AE) | 2 | 1 | 1.5 | – | – | – | –

Continued, values first:

Vca [1] [mol/mol] | VPi [1] [mol/mol] | Ca/P [1] | K [2] | Ca bound per molecule [1] [per molecule] | Pi bound per molecule [1] [per molecule] | calcium phosphate binding [1] | Substance
24 | 16 | 1.5 | – | – | – | – | RELEELNVPGEIVEΣLΣΣΣEESITR (RELEELNVPGEIVE[pS]L[pS][pS][pS]EESITR; listed as Bos sp.) [β(1-25), tryptic casein phosphopeptide]
0 | 0 | – | – | – | – | – | IAΣAEA (IA[pS]AEA)
6 | 4 | 1.5 | – | – | – | – | AΣAΣAΣAΣAE (A[pS]A[pS]A[pS]A[pS]AE)
– | – | – | 837 mL/µmol | – | – | – | θTθEE ([pT]T[pT]EE)
9 | 6 | 1.5 | 12,845 ml/μmol | – | – | – | [pS][pS][pS]EE [ΣΣΣEE]
0 | 0 | – | – | – | – | – | AΣAΣAE (A[pS]A[pS]AE)
0 | 0 | – | – | – | – | – | AΣAE (A[pS]AE)
– | – | – | 1,799 ml/μmol | – | – | – | θθTEE
12 | 8 | 1.5 | – | – | – | – | EΣLΣΣΣEE [β(14-21)]
